Experiments:
Human PBMCs = assay: CD3/CD28 mediated PBMC proliferation assay; type: cell-based; details: proliferation of human PBMCs stimulated with anti-CD3 and anti-CD28, 72 hours, Cell Titer-Glo
Method: Inhibition of cellular ITK was assessed by measuring proliferation of PBMCs following stimulation with anti-CD3 and anti-CD28 antibodies. Individual wells of 96 well tissue culture plates were coated with 50 μL of 5 μg/mL anti-CD3 (OKT3, eBiosciences) for 2 hours at 37° C. Human PBMCs (Stemcell Technologies catalog #70025.3) were plated in 96-well plates at a final concentration of 9.2×10e5 cells/mL in complete media (RPMI, 10% heat inactivated FBS, 55 uM β-mercaptoethanol) and pre-treated with compound curves for 30 minutes at 37° C., 5% CO2. Pre-treated cells plus compounds were transferred to washed anti-CD3 coated plates. Soluble anti-CD28 (CD28.2 eBiosciences) was added to each well at a final concentration of 2 μg/mL. The cells were placed in a humidified 37° C. incubator with 5% CO2 for 72 hours and metabolic viability was measured by quantification of ATP levels with Cell Titer-Glo (Promega catalog # G9242). Controls included unstimulated cells and vehicle alone. EC50 values (50% proliferation in the presence of compound as compared to vehicle treated controls) were calculated from dose response compound curves using GraphPad Prism Software.

[1] = tested on: Jurkat human acute T cell leukemia cells; assay: Jurkat IL-2 release assay; type: cell-based; details: IL-2 release from Jurkat cells stimulated with anti-CD3 and anti-CD28, 48 hours, ELISA
Method: Inhibition of cellular ITK was assessed by measuring release of IL-2 following stimulation with anti-CD3 and anti-CD28 antibodies. Individual wells of 96 well tissue culture plates were coated with 50 μL of 10 μg/mL anti-CD3 (OKT3, eBiosciences) for 2 hours at 37° C. Jurkat human acute T cell leukemia cells (ATCC) were plated in 96-well plates at a final concentration of 9.2×10e5 cells/mL in complete media (RPMI, 10% FBS, 1.5 g/L sodium bicarbonate, 10 mM Hepes, 1 mM sodium pyruvate, 4.5 g/L glucose) and pre-treated with compound curves for 30 minutes at 37° C., 5% CO2. Pre-treated cells plus compounds were transferred to washed anti-CD3 coated plates. Soluble anti-CD28 (CD28.2 eBiosciences) was added to each well at a final concentration of 1 μg/mL. The cells were placed in a humidified 37° C. incubator with 5% CO2 for 48 hours and IL-2 release was measured using a commercial ELISA (BD Bioscience catalog #555190). Controls included unstimulated cells and vehicle alone. EC50 values (50% IL-2 release in the presence of compound as compared to vehicle treated controls) were calculated from dose response compound curves using GraphPad Prism Software.

Row | SMILES | EC50 (Human PBMCs) | EC50 [1]
1 | C=CC(=O)Nc1ccc(-n2c(NC(=O)c3ccc(C(F)F)s3)nc3cc(CN[C@@H](C)C(C)(C)C)ccc32)cc1 [Compound 4] | > 100 nM | 10 to 100 nM
2 | C=CC(=O)N(C)c1cccc(-n2c(NC(=O)c3ccc(C(F)F)s3)nc3cc(CN[C@@H](C)C(C)(C)C)ccc32)c1 [Compound 5] | 10 to 100 nM | < 10 nM
3 | C=CC(=O)N(C)[C@H]1C[C@@H](n2c(NC(=O)c3ccc(C(F)F)s3)nc3cc(CN[C@@H](C)C(C)(C)C)ccc32)C1 [Compound 6] | 10 to 100 nM | < 10 nM
4 | C=CC(=O)Nc1cccc(-n2c(NC(=O)c3cccc(F)c3)nc3cc(CN[C@@H](C)C(C)(C)C)ccc32)c1 [Compound 7] | 10 to 100 nM | 10 to 100 nM
5 | C=CC(=O)Nc1cccc(-n2c(NC(=O)c3cccc(OC)c3)nc3cc(CN[C@@H](C)C(C)(C)C)ccc32)c1 [Compound 8] | > 100 nM | 10 to 100 nM
6 | C=CC(=O)Nc1cccc(-n2c(NC(=O)c3ccc(Cl)cc3)nc3cc(CN[C@@H](C)C(C)(C)C)ccc32)c1 [Compound 10] | 10 to 100 nM | 10 to 100 nM
7 | C=CC(=O)Nc1cccc(-n2c(NC(=O)c3cccs3)nc3cc(CN[C@@H](C)C(C)(C)C)ccc32)c1 [Compound 13] | 10 to 100 nM | 10 to 100 nM
8 | C=CC(=O)Nc1cccc(-n2c(NC(=O)c3ccc(C(F)F)s3)nc3cc(CNC4CCCCC4)ccc32)c1 [Compound 14] | 10 to 100 nM | < 10 nM
9 | C=CC(=O)Nc1cccc(-n2c(NC(=O)c3cccc(Cl)c3)nc3cc(CN[C@@H](C)C(C)(C)C)ccc32)c1 [Compound 15] | 10 to 100 nM | 10 to 100 nM
10 | C=CC(=O)Nc1cccc(-n2c(NC(=O)c3ccc(F)cc3)nc3cc(CN[C@@H](C)C(C)(C)C)ccc32)c1 [Compound 20] | > 100 nM | 10 to 100 nM
11 | C=CC(=O)Nc1cccc(-n2c(NC(=O)c3ccc(C(F)F)s3)nc3cc(CN[C@@H](C)CC)ccc32)c1 [Compound 21] | < 10 nM | 10 to 100 nM
12 | C=CC(=O)Nc1cccc(-n2c(NC(=O)c3ccc(C(F)F)s3)nc3cc(CN[C@@H](CO)C(C)(C)C)ccc32)c1 [Compound 22] | < 10 nM | < 10 nM
13 | C=CC(=O)Nc1cccc(-n2c(NC(=O)c3ccc(C(F)F)s3)nc3cc(CNCC(C)(C)C)ccc32)c1 [Compound 23] | < 10 nM | < 10 nM
14 | C=CC(=O)Nc1cccc(-n2c(NC(=O)c3ccc(OC)cc3)nc3cc(CN[C@@H](C)C(C)(C)C)ccc32)c1 [Compound 24] | > 100 nM | > 100 nM
15 | C=CC(=O)Nc1cccc(-n2c(NC(=O)c3cccc(O)c3)nc3cc(CN[C@@H](C)C(C)(C)C)ccc32)c1 [Compound 26] | > 100 nM | 10 to 100 nM
16 | C=CC(=O)Nc1cccc(-n2c(NC(=O)c3ccc(C(F)F)s3)nc3cc(CNCC(C)(C)CO)ccc32)c1 [Compound 29] | < 10 nM | < 10 nM
17 | C=CC(=O)Nc1cccc(-n2c(NC(=O)c3ccc(C(F)F)s3)nc3cc(CN[C@H](C)C(C)(C)C)ccc32)c1 [Compound 30] | < 10 nM | 10 to 100 nM
18 | C=CC(=O)Nc1cccc(-n2c(NC(=O)c3ccc(C(F)F)s3)nc3cc(CN4CCCC4)ccc32)c1 [Compound 32] | < 10 nM | < 10 nM
19 | C=CC(=O)Nc1ccc(F)c(-n2c(NC(=O)c3ccc(C(F)F)s3)nc3cc(CN[C@@H](C)C(C)(C)C)ccc32)c1 [Compound 33] | < 10 nM | < 10 nM
20 | C=CC(=O)Nc1cc(-n2c(NC(=O)c3ccc(C(F)F)s3)nc3cc(CN[C@@H](C)C(C)(C)C)ccc32)ccc1F [Compound 34] | > 100 nM | > 100 nM
21 | C=CC(=O)Nc1cccc(-n2c(NC(=O)c3ccc(C(F)F)s3)nc3cc(CN[C@H]4CC[C@@H](O)CC4)ccc32)c1 [Compound 35] | < 10 nM | 10 to 100 nM
22 | C=CC(=O)Nc1cccc(-n2c(NC(=O)c3ccc(C(F)F)s3)nc3cc(CN(C(C)=O)[C@@H](C)C(C)(C)C)ccc32)c1 [Compound 36] | 10 to 100 nM | 10 to 100 nM
23 | C=CC(=O)Nc1cccc(-n2c(NC(=O)c3ccc(OCc4ccccc4)cc3)nc3cc(CN[C@@H](C)C(C)(C)C)ccc32)c1 [Compound 37] | > 100 nM | > 100 nM
24 | C=CC(=O)Nc1cccc(-n2c(NC(=O)c3ccc(C(F)F)s3)nc3cc(CNCCCO)ccc32)c1 [Compound 39] | < 10 nM | 10 to 100 nM
25 | C=CC(=O)Nc1cccc(-n2c(NC(=O)c3ccc(C(F)F)s3)nc3cc(CNCC)ccc32)c1 [Compound 40] | < 10 nM | 10 to 100 nM

Row | SMILES | EC50 (Human PBMCs) | EC50 [1]
26 | C=CC(=O)Nc1cccc(-n2c(NC(=O)c3ccc(C(F)F)s3)nc3cc(CN4CCC[C@@H]4CO)ccc32)c1 [Compound 44] | < 10 nM | 
27 | C=CC(=O)Nc1cccc(-n2c(NC(=O)c3ccc(C(F)F)s3)nc3cc(CN4CCC[C@H]4CO)ccc32)c1 [Compound 45] | < 10 nM | 
28 | C=CC(=O)Nc1cccc(-n2c(NC(=O)c3ccc(C(F)F)s3)nc3cc(CNCCOCCOC)ccc32)c1 [Compound 46] | 10 to 100 nM | 
29 | C=CC(=O)Nc1cccc(-n2c(NC(=O)c3ccc(C(F)F)s3)nc3cc(CN[C@H](CO)C(C)(C)C)ccc32)c1 [Compound 47] | < 10 nM | 
30 | C=CC(=O)Nc1cccc(-n2c(NC(=O)c3ccc(C(F)F)s3)nc3cc(C(=O)N(C)C4CCCCC4)ccc32)c1 [Compound 48] | 10 to 100 nM | 
31 | C=CC(=O)Nc1cccc(-n2c(NC(=O)c3cnn(C)c3)nc3cc(CN[C@@H](C)C(C)(C)C)ccc32)c1 [Compound 49] | > 100 nM | 
32 | C=CC(=O)Nc1cccc(-n2c(NC(=O)c3ccc(C(F)F)s3)nc3cc(CN[C@H]4CC[C@H](OCCOC)CC4)ccc32)c1 [Compound 51] | < 10 nM | 
33 | C=CC(=O)Nc1cccc(-n2c(NC(=O)c3ccc(C(F)F)s3)nc3cc(C(=O)NC4CCCCC4)ccc32)c1 [Compound 53] | 10 to 100 nM | 
34 | C=CC(=O)N[C@H]1CC[C@@H](n2c(NC(=O)c3cccnc3)nc3cc(CN[C@@H](C)C(C)(C)C)ccc32)CC1 [Compound 55] | > 100 nM | 
35 | C=CC(=O)N1CCc2ccc(-n3c(NC(=O)c4ccc(C(F)F)s4)nc4cc(CN[C@@H](C)C(C)(C)C)ccc43)cc21 [Compound 56] | 10 to 100 nM | 
36 | C=CC(=O)N(C)[C@H]1CC[C@@H](n2c(NC(=O)c3ccc(C(F)F)s3)nc3cc(CN[C@@H](C)C(C)(C)C)ccc32)CC1 [Compound 58] | > 100 nM | 
37 | C=CC(=O)Nc1cccc(-n2c(NC(=O)c3ccc(C(F)F)s3)nc3cc(CN[C@H]4CC[C@@H](OCCOC)CC4)ccc32)c1 [Compound 60] | < 10 nM | 
38 | C=CC(=O)Nc1cccc(-n2c(NC(=O)c3ccc(C(F)F)s3)nc3cc(CN4C[C@@H](C)O[C@@H](C)C4)ccc32)c1 [Compound 61] | < 10 nM | 
39 | C=CC(=O)N[C@H]1C[C@@H](n2c(NC(=O)c3ccc(C(F)F)s3)nc3cc(N(C)C(=O)C4CCCCC4)ccc32)C1 [Compound 63] | > 100 nM | 
40 | C=CC(=O)N[C@H]1C[C@@H](n2c(NC(=O)c3ccc(C(F)F)s3)nc3cc(NC(=O)C4CCCCC4)ccc32)C1 [Compound 64] | > 100 nM | 
41 | C=CC(=O)N[C@H]1C[C@@H](n2c(NC(=O)c3ccc(C(F)F)s3)nc3cc(C(=O)N(C)C4CCCCC4)ccc32)C1 [Compound 65] | > 100 nM | 
42 | C=CC(=O)Nc1cccc(-n2c(NC(=O)c3ccc(C(F)F)s3)nc3cc(CNCCCOCCOCCCNC(C)=O)ccc32)c1 [Compound 66] | 10 to 100 nM | 
43 | C=CC(=O)Nc1cccc(-n2c(NC(=O)c3ccc(C(F)F)s3)nc3cc(CO)ccc32)c1 [Compound 69] | 10 to 100 nM | 
44 | C=CC(=O)N[C@H]1C[C@@H](n2c(NC(=O)c3ccc(C(F)F)s3)nc3cc(C(=O)NC4CCCCC4)ccc32)C1 [Compound 70] | > 100 nM | 
45 | C=CC(=O)N[C@H]1CC[C@@H](n2c(NC(=O)c3ccc(-c4cnco4)s3)nc3cc(CN[C@@H](C)C(C)(C)C)ccc32)CC1 [Compound 71] | 10 to 100 nM | 
46 | C=CC(=O)Nc1cccc(-n2c(NC(=O)c3ccno3)nc3cc(CN[C@H]4CC[C@H](O)CC4)ccc32)c1 [Compound 74] | > 100 nM | 
47 | C=CC(=O)Nc1cccc(-n2c(NC(=O)c3ccns3)nc3cc(CN[C@H]4CC[C@H](O)CC4)ccc32)c1 [Compound 75] | > 100 nM | 
48 | C=CC(=O)Nc1cccc(-n2c(NC(=O)c3ccc(C(F)F)s3)nc3cc(OCc4ccccc4)ccc32)c1 [Compound 79] | > 100 nM | 
49 | C=CC(=O)Nc1cccc(-n2c(NC(=O)c3cnc(C(C)C)s3)nc3cc(CN[C@@H](C)C(C)(C)C)ccc32)c1 [Compound 82] |  | 10 to 100 nM
50 | C/C=C/C(=O)Nc1cccc(-n2c(NC(=O)c3ccc(C(F)F)s3)nc3cc(CN[C@@H](C)C(C)(C)C)ccc32)c1 [Compound 83] | > 100 nM | 
